Test results reported in publication PMC3897212 (Journal of pharmacokinetics and pharmacodynamics, 2013).
Read-outs that look alike come from different tables or passages of the source. Marks after values point to notes of the source that are not given here.

What was measured:
[1] = test system: albumin and alpha-1 acid glycoprotein; conditions: cited from earlier work
[2] = patients administered lapatinib; cited from earlier work
[3] = Mouse PBPK model of lapatinib
[4] = Time course tissue distribution / pharmacokinetic study in mice; format: in vivo, female FVB mice; conditions: mouse; for AUC(0-t) / half-life: female, FVB, po
[5] = mice; owing to ABCB1- and ABCB2-mediated efflux; cited from earlier work
[6] = Single 100 mg dose plasma pharmacokinetic study in healthy subjects; format: in vivo; conditions: human, po
[7] = Human PBPK model of lapatinib
[8] = test system: brain metastases from HER2-positive breast cancer; conditions: human patients with brain metastases from HER2-positive breast cancer; cited from earlier work
[9] = human plasma, cited from earlier work
[10] = test system: metastatic breast cancer cells in the brains of mice; conditions: cited from earlier work
[11] = test system: CYP3A; conditions: cited from earlier work
[12] = first-order, parameter estimate (CV%) fitted to 60 mg/kg cohort
[13] = parameter estimate (CV%) fitted to 60 mg/kg cohort
[14] = slowly perfused tissue, 30 mg/kg
[15] = slowly perfused tissue, 60 mg/kg
[16] = slowly perfused tissue, 90 mg/kg

CS(=O)(=O)CCNCc1ccc(-c2ccc3ncnc(Nc4ccc(OCc5cccc(F)c5)c(Cl)c4)c3c2)o1 [lapatinib, N-{3-chloro-4-[(3-fluorobenzyl)oxy]phenyl}-6-[5-({[2-(methylsulfonyl)ethyl]amino}methyl)-2-furyl]-4-quinazolinamine]
bound to albumin and alpha-1 acid glycoprotein [1]: > 99%
Percent unbound ([1]; plasma, value set in PBPK model): 1%
unbound fraction of drug in the plasma ([1]; value set in PBPK model): 0.01
adverse reactions observed in clinical trials [2]: decreased left ventricular ejection fraction, QT prolongation, hepatotoxicity, diarrhea and interstitial lung disease/pneumonitis
Metabolism rate constant Intestine ([3]; calculated as 2 % of liver metabolism): 2.5 ^e h^−1
Absorption rate constant Lumen → Intestine [3, 12]: 0.237 (2) h^−1
Metabolism rate constant Liver [3, 12]: 127 (13) h^−1
Partition coefficient Brain:plasma [3, 13]: 10 (19) Ratio
Partition coefficient Intestine:plasma [3, 13]: 531 (31) Ratio
Partition coefficient Kidney:plasma [3, 13]: 1,064 (18) Ratio
Partition coefficient Liver:plasma [3, 13]: 12 (20) Ratio
Partition coefficient Lung:plasma [3, 13]: 1,643 (19) Ratio
Partition coefficient Slowly perfused:plasma [3, 13]: 65 (20) Ratio
AUC(0-t) ([4]; brain, 30 mg/kg): 0.441 µM·h
AUC(0-t) ([4]; brain, 60 mg/kg): 1.31 µM·h
half-life ([4]; brain, 60 mg/kg): 3.12 h
AUC(0-t) ([4]; brain, 90 mg/kg): 2.26 µM·h
half-life ([4]; brain, 90 mg/kg): 1.76 h
AUC(0-t) ([4]; heart, 30 mg/kg): 7.16 µM·h
half-life ([4]; heart, 30 mg/kg): 2.59 h
AUC(0-t) ([4]; heart, 60 mg/kg): 26.5 µM·h
half-life ([4]; heart, 60 mg/kg): 3.05 h
AUC(0-t) ([4]; heart, 90 mg/kg): 55.2 µM·h
half-life ([4]; heart, 90 mg/kg): 2.32 h
AUC(0-t) ([4]; intestine, 30 mg/kg): 79.9 µM·h
half-life ([4]; intestine, 30 mg/kg): 2.79 h
AUC(0-t) ([4]; intestine, 60 mg/kg): 235 µM·h
half-life ([4]; intestine, 60 mg/kg): 3.05 h
AUC(0-t) ([4]; intestine, 90 mg/kg): 260 µM·h
half-life ([4]; intestine, 90 mg/kg): 2.55 h
AUC(0-t) ([4]; kidney, 30 mg/kg): 50.4 µM·h
half-life ([4]; kidney, 30 mg/kg): 2.53 h
AUC(0-t) ([4]; kidney, 60 mg/kg): 138 µM·h
half-life ([4]; kidney, 60 mg/kg): 3.57 h
AUC(0-t) ([4]; kidney, 90 mg/kg): 227 µM·h
half-life ([4]; kidney, 90 mg/kg): 2.51 h
AUC(0-t) ([4]; liver, 30 mg/kg): 84.9 µM·h
half-life ([4]; liver, 30 mg/kg): 2.48 h
half-life ([4]; liver, 60 mg/kg): 2.75 h
AUC(0-t) ([4]; liver, 90 mg/kg): 261 µM·h
half-life ([4]; liver, 90 mg/kg): 1.91 h
AUC(0-t) ([4]; lung, 30 mg/kg): 92.4 µM·h
half-life ([4]; lung, 30 mg/kg): 2.39 h
half-life ([4]; lung, 60 mg/kg): 3.04 h
AUC(0-t) ([4]; lung, 90 mg/kg): 623 µM·h
half-life ([4]; lung, 90 mg/kg): 1.72 h
AUC(0-t) ([4]; plasma, 30 mg/kg): 12 µM·h
half-life ([4]; plasma, 30 mg/kg): 2.73 h
AUC(0-t) ([4]; plasma, 60 mg/kg): 24.1 µM·h
half-life ([4]; plasma, 60 mg/kg): 3.42 h
AUC(0-t) ([4]; plasma, 90 mg/kg): 48.2 µM·h
half-life ([4]; plasma, 90 mg/kg): 2.36 h
AUC(0-t) [4, 14]: 2.74 µM·h
half-life [4, 14]: 3.88 h
AUC(0-t) [4, 15]: 9.52 µM·h
half-life [4, 15]: 2.57 h
AUC(0-t) [4, 16]: 18.9 µM·h
half-life [4, 16]: 1.55 h
dose linearity of pharmacokinetics ([4]; all tissues, 30–90 mg/kg dose range, dose-dependent increase in AUC0–16 h and constant CL): linear pharmacokinetics
central nervous system (CNS) penetration [5]: poor central nervous system (CNS) penetration
AUC(0-t) [6]: 2.7 µM·h
half-life [6]: 9.5 h
Partition coefficient Brain:plasma ([7]; human PBPK model parameter): 10 Ratio
Partition coefficient Intestine:plasma ([7]; human PBPK model parameter): 531 Ratio
Partition coefficient Kidney:plasma ([7]; human PBPK model parameter): 1,064 Ratio
Partition coefficient Liver:plasma ([7]; human PBPK model parameter): 12 Ratio
Partition coefficient Lung:plasma ([7]; human PBPK model parameter): 1,643 Ratio
Partition coefficient Slowly perfused:plasma ([7]; human PBPK model parameter): 65 Ratio
Metabolism rate constant Intestine ([7]; human, calculated as 1.3 % of liver metabolism): 0.975 ^f h^−1
CNS antitumor activity [8]: modest CNS antitumor activity
Observed Tmax ([9]; 25 mg multiple dose, healthy, fasted, median (range)): 2.7 (2.5–4.0) ^e h
Observed Tmax ([9]; 100 mg multiple dose, healthy, fasted, median (range)): 3.0 (2.0–6.0) ^e h
Observed Tmax ([9]; 175 mg single dose, healthy, fasted, median (range)): 3.0 (2.0–4.0) ^f h
Observed Tmax ([9]; 1,200 mg multiple dose, cancer, fasted, median (95 % CI)): 3.6 (3.0–7.9) ^f h
Observed Tmax ([9]; 1,200 mg single dose, cancer, fasted, median (95 % CI)): 3.5 (2.1–6.0) ^g h
Observed Tmax ([9]; 1,250 mg multiple dose, cancer, fasted, median (range)): 3.0 (1.5–8.0) ^f h
Observed Tmax ([9]; 1,250 mg multiple dose, cancer, not fasted, median (range)): 3.0 (2.6–8.0) ^f h
Observed Tmax ([9]; 1,500 mg multiple dose, cancer, fasted, median (range)): 3.0 (0.0–12.2) ^f h
Observed Tmax ([9]; 1,500 mg multiple dose, cancer, not fasted, median (range)): 3.4 (0.0–6.0) ^f h
Observed Tmax ([9]; 1,600 mg multiple dose, cancer, fasted, median (95 % CI)): 5.1 (0.9–8.0) ^g h
Observed Tmax ([9]; 1,800 mg multiple dose, cancer, fasted, median (95 % CI)): 3.9 (3.0–7.9) ^g h
Observed Tmax ([9]; 1,800 mg single dose, cancer, fasted, median (95 % CI)): 3.9 (3.0–8.0) ^g h
burden of metastatic breast cancer cells in the brain [10]: reduce the burden of metastatic breast cancer cells in the brains of mice

Cc1ncc2n1-c1ccc(Cl)cc1C(c1ccccc1F)=NC2 [midazolam]
microsomal intrinsic clearance ([11]; human liver): 15800 mL/min
microsomal intrinsic clearance ([11]; human small intestine): 213.7 mL/min
small intestine microsomal intrinsic clearance as percent of liver ([11]; human): 1.35%
